Measurements as given in article PMC9774241, “Associating Biological Activity and Predicted Structure of Antimicrobial Peptides from Amphibians and Insects” (Antibiotics, 2022).
Values after ≈ are worked out from the molar mass of the structure shown. Read-outs that look alike come from different tables or passages of the source. Residues, ends and D or L forms follow the SMILES beside them. No end group written: not given here.

Legend:
porcine red blood cells = assay: Hemolysis assay (HC50); format: cell-based, pig
Protocol: Peptides were evaluated for toxicity using three independent hemolysis experiments. Whole blood from healthy donor pigs, supplemented with Na Citrate, was purchased from Lampire Biological Laboratories (Pipersville, PA, USA). Red blood cells (RBCs) were washed and isolated by three centrifugation cycles using Roswell Park Memorial Institute medium (RPMI; Thermo-Fisher Scientific) to create a 1% (v/v) RBC solution. […] Following a minimum 30 min incubation at 37 °C, plates were centrifuged and ½ volume from each supernatant was transferred to a new 96-well plate. The absorbance of these wells was measured at 415 nm. To quantify hemolytic activity and determine the AMP concentration that lyses 50% of the RBCs (HC50), absorbance reading from wells containing RBCs treated with 11 μL of a 2% TritonX-100 detergent solution (TX-100) or RPMI (AMP solvent-only) were used to define 100% and 0% hemolysis, respectively. All centrifugation steps were performed at 500× g for five minutes in an Allegra-6R centrifuge (Beckman Coulter, Brea, CA, USA).

[1] = tested on: Staphylococcus aureus ATCC 29213; format: cell-based
Outline: (§1)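 CLSI broth microdilution in MHB, adapted for cationic peptides, in polypropylene plates; peptides 2-fold from 128 to 0.5 µg/mL, inoculum 2–8 × 10^5 cfu/mL. Incubated 20–24 h at 37 °C; MIC = lowest concentration with no visible growth.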

[2] = tested on: Salmonella enterica serovar Enteritidis (human clinical isolate); format: cell-based
Outline: as §1

[3] = tested on: Escherichia coli ATCC 25922; format: cell-based
Outline: as §1

[4] = broth microdilution in MHB, peptide 128 down to 0.5 µg/mL, 20–24 h at 37 °C, no visible growth, range of three independent experiments

Compound | hemolytic activity (in words) (porcine red blood cells; porcine RBCs, highest concentration tested 128 µg/mL) | MIC, S. aureus ATCC 29213 [1, 4] | MIC, Salmonella Enteritidis [2, 4] | MIC, E. coli ATCC 25922 [3, 4] | HC50 (hemolytic 50 concentration) (porcine red blood cells; 1% porcine RBCs in RPMI, peptide 128 down to 1 µg/mL, minimum 30 min at 37 °C, absorbance 415 nm, three independent experiments) | MIC, S. aureus ATCC 29213 ([1]; ATCC 29213) | MIC, Salmonella Enteritidis ([2]; serovar Enteritidis (human clinical isolate)) | MIC, E. coli ATCC 25922 ([3]; ATCC 25922)
RPRPQQVPPRPPHPRLRR [PaVa1] | not toxic |  |  |  |  |  |  | 
CC[C@H](C)[C@H](NC(=O)[C@H](CCCCN)NC(=O)[C@H](CS)NC(=O)[C@H](CCCCN)NC(=O)[C@H](CC(C)C)NC(=O)[C@H](CC(N)=O)NC(=O)[C@H](Cc1ccc(O)cc1)NC(=O)[C@H](CC(C)C)NC(=O)[C@H](CC(C)C)NC(=O)[C@@H](NC(=O)[C@@H](NC(=O)[C@H](C)NC(=O)[C@@H](NC(=O)[C@H](CC(N)=O)NC(=O)[C@H](CCCCN)NC(=O)[C@H](C)NC(=O)[C@@H](NC(=O)[C@H](CC(N)=O)NC(=O)[C@H](CCCCN)NC(=O)[C@H](C)NC(=O)[C@@H](NC(=O)[C@H](CC(=O)O)NC(=O)[C@H](CCSC)NC(=O)[C@H](Cc1ccccc1)NC(=O)CN)[C@@H](C)O)C(C)C)C(C)C)C(C)C)[C@@H](C)O)C(=O)N[C@H](C(=O)N[C@@H](CCCCN)C(=O)N[C@@H](C)C(=O)N[C@@H](CS)C(=O)O)[C@@H](C)O [OdMa12] (H-GFMDTAKNVAKNVAVTLLYNLKCKITKAC-OH; N-terminus and C-terminus assumed) |  | 64 to 128 µg/mL | 64 µg/mL (≈ 20.3 µM) | 4 µg/mL (≈ 1.27 µM) |  |  |  | 
CC[C@H](C)[C@H](NC(=O)CNC(=O)[C@H](C)NC(=O)[C@@H](NC(=O)[C@H](CC(N)=O)NC(=O)[C@H](CCCCN)NC(=O)[C@H](C)NC(=O)[C@H](C)NC(=O)CNC(=O)[C@H](CCCCN)NC(=O)[C@@H](NC(=O)[C@@H](NC(=O)[C@H](CC(=O)O)NC(=O)[C@H](CC(C)C)NC(=O)[C@H](CC(C)C)NC(=O)[C@H](CC(C)C)NC(=O)CN)[C@@H](C)O)C(C)C)C(C)C)C(=O)N[C@@H](CC(C)C)C(=O)N[C@@H](CC(C)C)C(=O)N[C@@H](CC(N)=O)C(=O)N[C@@H](CCCCN)C(=O)N[C@@H](CC(C)C)C(=O)N[C@@H](CCCCN)C(=O)N[C@@H](CS)C(=O)N[C@@H](CCCCN)C(=O)N[C@H](C(=O)N[C@H](C(=O)NCC(=O)N[C@@H](CC(=O)O)C(=O)N[C@@H](CS)C(=O)O)[C@@H](C)O)C(C)C [PeNi10] (H-GLLLDTVKGAAKNVAGILLNKLKCKVTGDC-OH; N-terminus and C-terminus assumed) |  | 16 to 32 µg/mL | 64 to 128 µg/mL | 8 µg/mL (≈ 2.62 µM) |  |  |  | 
CC[C@H](C)[C@H](NC(=O)CN)C(=O)N[C@@H](CC(C)C)C(=O)N[C@H](C(=O)N[C@@H](CC(=O)O)C(=O)N[C@H](C(=O)N[C@@H](CC(C)C)C(=O)N[C@@H](CCCCN)C(=O)NCC(=O)N[C@@H](C)C(=O)N[C@@H](C)C(=O)N[C@@H](CCCCN)C(=O)N[C@@H](CC(N)=O)C(=O)N[C@H](C(=O)N[C@@H](C)C(=O)NCC(=O)N[C@H](C(=O)N[C@@H](CC(C)C)C(=O)N[C@@H](CC(C)C)C(=O)N[C@@H](CC(=O)O)C(=O)N[C@@H](CCCCN)C(=O)N[C@@H](CC(C)C)C(=O)N[C@@H](CCCCN)C(=O)N[C@@H](CS)C(=O)N[C@@H](CCCCN)C(=O)N[C@H](C(=O)N[C@H](C(=O)NCC(=O)NCC(=O)N[C@@H](CS)C(=O)O)[C@@H](C)O)[C@@H](C)CC)C(C)C)C(C)C)[C@@H](C)O)[C@@H](C)O [PeNi11] (H-GILTDTLKGAAKNVAGVLLDKLKCKITGGC-OH; N-terminus and C-terminus assumed) |  | 64 µg/mL (≈ 21.3 µM) | 128 µg/mL (≈ 42.6 µM) | 8 to 16 µg/mL |  |  |  | 
FIKTQVLKHLVAGVRVARGLDWKWR [CaCa2] |  | 64 to 128 µg/mL | > 128 µg/mL | 8 µg/mL |  |  |  | 
CC[C@H](C)[C@H](NC(=O)CNC(=O)[C@H](CCCNC(=N)N)NC(=O)[C@H](CC(C)C)NC(=O)[C@H](CC(C)C)NC(=O)CN)C(=O)N[C@@H](CC(C)C)C(=O)NCC(=O)N[C@@H](C)C(=O)NCC(=O)N[C@@H](CCCCN)C(=O)N[C@@H](CCCCN)C(=O)N[C@H](C(=O)N[C@H](C(=O)N[C@@H](CS)C(=O)NCC(=O)N[C@@H](CC(C)C)C(=O)N[C@@H](CO)C(=O)NCC(=O)N[C@@H](CC(C)C)C(=O)N[C@@H](CS)C(=O)O)C(C)C)[C@@H](C)CC [OdMa2] (H-GLLRGILGAGKKIVCGLSGLC-OH) |  | 4 to 8 µg/mL | 8 to 16 µg/mL | 4 µg/mL (≈ 1.97 µM) | 128 µg/mL |  |  | 
GIFSLIKGAAKVVAKGLG [PeNi3, rAMPage-discovered AMP, Pelophylax nigromaculatus] |  | 64 to 128 µg/mL | 64 to 128 µg/mL | 16 to 32 µg/mL |  |  |  | 
GLLGKVLGVGKKVLC [PeNi4, rAMPage-discovered AMP, Pelophylax nigromaculatus] |  | 4 to 8 µg/mL | 4 to 8 µg/mL | 8 to 16 µg/mL |  |  |  | 
GWGLINIKIPPVLHKVSVPLVSKR [ApMe3] |  | > 128 µg/mL | > 128 µg/mL | > 128 µg/mL |  |  |  | 
WALRWKTR [PaVi1] |  | > 128 µg/mL | > 128 µg/mL | > 128 µg/mL |  |  |  | 
CC[C@H](C)[C@H](NC(=O)CN)C(=O)N[C@@H](CC(C)C)C(=O)N[C@@H](CO)C(=O)NCC(=O)N[C@@H](CC(C)C)C(=O)N[C@@H](CC(C)C)C(=O)NCC(=O)N[C@@H](C)C(=O)NCC(=O)N[C@@H](CCCCN)C(=O)N[C@@H](CCCCN)C(=O)N[C@@H](CC(C)C)C(=O)N[C@@H](C)C(=O)N[C@@H](CS)C(=O)NCC(=O)N[C@@H](CC(C)C)C(=O)N[C@H](C(=O)NCC(=O)N[C@@H](CC(C)C)C(=O)N[C@@H](CS)C(=O)O)[C@@H](C)CC [OdTo1] (H-GILSGLLGAGKKLACGLIGLC-OH; N-terminus and C-terminus assumed) |  | 8 to 16 µg/mL | 32 to 64 µg/mL | 8 µg/mL (≈ 4.09 µM) |  |  |  | 
KEERGAPKGCWTKSYPPKPCSGKR [PeNi13] |  | > 128 µg/mL | > 128 µg/mL | > 128 µg/mL |  |  |  | 
GILSGLLGAGKKIVC [OdMa4] |  | > 128 µg/mL | 32 µg/mL | 8 to 16 µg/mL |  |  |  | 
GIFSLIKGAAK [LeBo1] |  | > 128 µg/mL | > 128 µg/mL | > 128 µg/mL |  |  |  | 
FILHAKKTRSAK [VeSi1] |  | > 128 µg/mL | > 128 µg/mL | > 128 µg/mL |  |  |  | 
AFVRILCYCCPRRIKRR [TeRu2, rAMPage-discovered AMP, Temnothorax rugatulus] |  | 128 µg/mL | > 128 µg/mL | 64 to 128 µg/mL |  |  |  | 
CC[C@H](C)[C@H](NC(=O)CNC(=O)[C@H](CO)NC(=O)[C@H](CC(C)C)NC(=O)[C@H](CC(C)C)NC(=O)CN)C(=O)N[C@@H](CC(C)C)C(=O)NCC(=O)N[C@@H](C)C(=O)NCC(=O)N[C@@H](CCCCN)C(=O)N[C@@H](CCCCN)C(=O)N[C@H](C(=O)N[C@H](C(=O)N[C@@H](CS)C(=O)NCC(=O)N[C@@H](Cc1ccccc1)C(=O)N[C@@H](CO)C(=O)NCC(=O)N[C@@H](CC(C)C)C(=O)N[C@@H](CS)C(=O)O)C(C)C)[C@@H](C)CC [OdMa1] (H-GLLSGILGAGKKIVCGFSGLC-OH; N-terminus and C-terminus assumed) |  | 64 µg/mL (≈ 32.1 µM) | 128 µg/mL (≈ 64.2 µM) | 8 to 16 µg/mL |  |  |  | 
GILRSLGWIQMPRSRRRHR [AnFl2] |  | > 128 µg/mL | 128 µg/mL | 16 to 32 µg/mL |  |  |  | 
DNKWQNVHFHRSAVTGPTSFSFSHK [AnFl1] |  |  |  |  |  | > 128 µg/mL | > 128 µg/mL | > 128 µg/mL
CC[C@H](C)[C@H](NC(=O)[C@H](CCCCN)NC(=O)CNC(=O)[C@H](CC(C)C)NC(=O)[C@H](CC(C)C)NC(=O)CN)C(=O)N[C@@H](CC(C)C)C(=O)NCC(=O)N[C@H](C(=O)NCC(=O)N[C@@H](CCCCN)C(=O)N[C@@H](CCCCN)C(=O)N[C@H](C(=O)N[C@@H](CC(C)C)C(=O)N[C@@H](CS)C(=O)NCC(=O)N[C@H](C(=O)N[C@@H](CO)C(=O)NCC(=O)N[C@@H](CC(C)C)C(=O)N[C@@H](CS)C(=O)O)C(C)C)C(C)C)C(C)C [PeNi9] (H-GLLGKILGVGKKVLCGVSGLC-OH) |  | 4 to 8 µg/mL | 8 to 16 µg/mL | 2 to 4 µg/mL |  |  |  | 
